Experimental data from PMC8151276, “An Integrated Approach toward NanoBRET Tracers for Analysis of GPCR Ligand Engagement” (Molecules, 2021).
Where “and” joins values, the source holds several entries; their conditions need not be identical. Equal entries are not always repeated. Where two headings read alike, the source gives them in different places.

Tests used:
Type in all cases: binding
CCR5 = molecular target: T1, CCR5 (Homo sapiens, UniProt P51681); experiment: NanoBRET screen HiBiT-CCR5 in HEK293
T1 construct: purchased Promega (in-house HiBiT-GPCR construct library, NanoBRET)
T1 sequence (P51681 whole entry): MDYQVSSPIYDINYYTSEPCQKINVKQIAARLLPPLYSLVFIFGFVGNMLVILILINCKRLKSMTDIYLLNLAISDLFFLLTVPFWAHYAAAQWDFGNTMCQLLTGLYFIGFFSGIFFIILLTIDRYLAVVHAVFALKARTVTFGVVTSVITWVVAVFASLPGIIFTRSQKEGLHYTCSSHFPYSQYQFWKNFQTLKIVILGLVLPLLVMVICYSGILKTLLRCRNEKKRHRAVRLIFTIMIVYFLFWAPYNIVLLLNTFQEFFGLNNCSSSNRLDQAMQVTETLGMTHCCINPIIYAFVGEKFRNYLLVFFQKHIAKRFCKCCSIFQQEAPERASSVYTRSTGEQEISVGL
Method: (§1) Each tracer candidate was screened across the entire library of HiBiT-GPCR constructs using NanoBRET as the detection modality. As depicted in Figure 4A, the specificity of interactions was evaluated through decrease in BRET due to competitive displacement of a bound tracer by excess parental compound. Each tracer was analyzed for binding to each HiBiT-GPCR fusion in the absence and in the presence of competing parental compound. Briefly, HEK293 cells were transfected with HiBiT-GPCR constructs diluted into promoterless DNA to reduce expression and maximize translocation to the cell surface. Each tracer candidate was then screened at concentrations of 1 μM and 0.1 μM across cells expressing these fusions. Cells were treated for 1.5 h with tracer either alone or in the presence of 20 μM competing parental compound (i.e., control). BRET was measured upon addition of purified LgBiT and subsequent complementation with HiBiT genetically fused to a GPCR. The specificity of interactions was assessed through a decrease in BRET signal due to competitive displacement of the bound tracer. To further gauge the robustness of these interactions, the fold response over the control (i.e., BRETtracer/BRETcontrol) was calculated. We chose a 1.5-fold response, which translates to ≥7-fold signal over noise as the minimal threshold required to score an interaction as positive. […]. Below we highlight the screening results obtained for our exemplary fluorescent tracers based on Clozapine, Amitriptyline and AZD1283.
(§2) HiBiT-GPCR DNA constructs were diluted in 10 mM Tris pH 8 to a final concentration of 0.01 μg/μL, arrayed in 96-well plates and stored at −20 °C. For transfection, HEK293 cells were suspended in Opti-MEM (without phenol red) supplemented with 2% fetal bovine serum (Seradigm) and 100 units/mL penicillin–streptomycin (Gibco) at a final concentration of 220,000 cells/mL and dispensed into white 96-well plates at 90 μL/well. Subsequent transfections and screens were carried using an Agilent Bravo Automated Liquid Handling Platform. First, the 96-well HiBiT DNA arrays were diluted 25-fold in Opti-MEM (without serum or phenol red) to a final concentration of 0.0004 μg/μL and 20 μL of the diluted DNAs were transferred into new 96-well plates. Next, promoterless carrier DNA (1 μg/μL) was diluted 25-fold (0.04 μg/μL) and then dispensed into the diluted arrays at 20 μL/well. Following brief mixing, Viafect transfection reagent (Promega) diluted 16-fold into Opti-MEM was dispensed into the plates at 40 μL/well. After mixing by pipetting, plates were incubated for 10 min on the pipetting station deck. The DNA-transfection reagent complexes were then added to plates containing cells. To facilitate the screen, 10 μL of DNA-transfection reagent complexes were added in duplicates to the top 4 and bottom 4 rows, resulting in two identical 48-well arrays per plate. Plates with transfected cells were incubated for 18–20 h at 37 °C/5% CO2. A screen of each tracer across the entire library using two different concentrations requires duplicate plates of transfected cells. Depending on the number of tracers being screened, transfections can be scaled up using the same ratios. The next day, for each tracer, four 20× screening solutions in tracer dilution buffer (Promega) were prepared: two duplicates at final concentration of 20 μM and two duplicates at a final concentration of 2 μM. A competing unmodified compound was added to one of each duplicate at a final concentration of 400 μM. The four resulting solutions were diluted 4-fold in Opti-MEM without serum or phenol red to generate 5× solutions (5 µM and 0.5 µM tracer +/− 100 μM competing compound). To screen the library, a BioTek MultiFlo FX liquid dispenser was used to dispense 22.5 µL of tracer solution to the top 4 rows and 22.5 µL tracer + competing compound solution to the 4 bottom rows. Plates were briefly mixed on an orbital shaker and incubated for 1.5 h at room temperature. […]

OPRK1 = molecular target: T2, OPRK1 (Homo sapiens, UniProt P41145); experiment: NanoBRET screen HiBiT-OPRK1 in HEK293
T2 construct: purchased Promega (in-house HiBiT-GPCR construct library, NanoBRET)
T2 sequence (P41145 whole entry): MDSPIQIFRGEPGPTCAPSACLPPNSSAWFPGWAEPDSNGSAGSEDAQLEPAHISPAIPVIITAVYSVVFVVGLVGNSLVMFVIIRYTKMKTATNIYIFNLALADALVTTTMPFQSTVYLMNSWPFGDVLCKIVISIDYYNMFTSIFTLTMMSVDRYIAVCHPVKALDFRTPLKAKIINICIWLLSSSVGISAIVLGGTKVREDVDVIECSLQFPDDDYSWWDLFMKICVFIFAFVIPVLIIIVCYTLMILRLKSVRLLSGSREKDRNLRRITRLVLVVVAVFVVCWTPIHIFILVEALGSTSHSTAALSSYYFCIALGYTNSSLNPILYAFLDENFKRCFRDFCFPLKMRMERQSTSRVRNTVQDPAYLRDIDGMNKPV
Method: as §1, §2

CHRM1 = molecular target: T3, CHRM1 (Homo sapiens, UniProt P11229); experiment: NanoBRET screen HiBiT-CHRM1 in HEK293
T3 construct: purchased Promega (in-house HiBiT-GPCR construct library, NanoBRET)
T3 sequence (P11229 1-460): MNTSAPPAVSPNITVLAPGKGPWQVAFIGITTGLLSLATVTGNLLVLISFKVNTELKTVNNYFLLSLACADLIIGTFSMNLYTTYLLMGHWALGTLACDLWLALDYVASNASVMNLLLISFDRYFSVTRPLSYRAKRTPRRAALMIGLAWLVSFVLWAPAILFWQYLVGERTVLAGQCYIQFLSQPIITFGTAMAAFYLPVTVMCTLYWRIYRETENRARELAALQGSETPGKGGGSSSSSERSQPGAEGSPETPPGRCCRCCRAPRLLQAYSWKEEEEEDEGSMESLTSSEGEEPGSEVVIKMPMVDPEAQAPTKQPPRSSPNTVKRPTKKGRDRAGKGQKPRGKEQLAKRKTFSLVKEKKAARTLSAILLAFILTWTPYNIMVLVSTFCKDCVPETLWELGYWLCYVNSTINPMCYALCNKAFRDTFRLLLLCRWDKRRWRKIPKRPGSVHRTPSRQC

CHRM3 = molecular target: T4, CHRM3 (Homo sapiens, UniProt P20309); experiment: NanoBRET screen HiBiT-CHRM3 in HEK293
T4 construct: purchased Promega (in-house HiBiT-GPCR construct library, NanoBRET)
T4 sequence (P20309 whole entry): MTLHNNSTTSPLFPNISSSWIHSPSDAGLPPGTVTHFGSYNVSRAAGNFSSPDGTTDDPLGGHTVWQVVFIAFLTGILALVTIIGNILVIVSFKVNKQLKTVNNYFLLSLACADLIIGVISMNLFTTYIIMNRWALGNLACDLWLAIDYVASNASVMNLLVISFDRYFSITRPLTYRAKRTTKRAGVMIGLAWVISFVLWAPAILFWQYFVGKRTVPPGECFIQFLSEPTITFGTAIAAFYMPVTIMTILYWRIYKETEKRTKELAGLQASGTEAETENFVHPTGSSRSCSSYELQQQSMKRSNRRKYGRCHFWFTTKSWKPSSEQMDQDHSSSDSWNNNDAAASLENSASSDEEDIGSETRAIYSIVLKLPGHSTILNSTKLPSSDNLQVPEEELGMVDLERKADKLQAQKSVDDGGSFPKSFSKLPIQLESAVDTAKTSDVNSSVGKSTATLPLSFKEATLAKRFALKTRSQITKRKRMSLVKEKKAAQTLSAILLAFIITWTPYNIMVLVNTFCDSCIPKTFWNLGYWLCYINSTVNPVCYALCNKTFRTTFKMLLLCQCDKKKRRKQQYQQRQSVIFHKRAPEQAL

HRH1 = molecular target: T5, HRH1 (Homo sapiens, UniProt P35367); experiment: NanoBRET screen HiBiT-HRH1 in HEK293
T5 construct: purchased Promega (in-house HiBiT-GPCR construct library, NanoBRET)
T5 sequence (P35367 whole entry): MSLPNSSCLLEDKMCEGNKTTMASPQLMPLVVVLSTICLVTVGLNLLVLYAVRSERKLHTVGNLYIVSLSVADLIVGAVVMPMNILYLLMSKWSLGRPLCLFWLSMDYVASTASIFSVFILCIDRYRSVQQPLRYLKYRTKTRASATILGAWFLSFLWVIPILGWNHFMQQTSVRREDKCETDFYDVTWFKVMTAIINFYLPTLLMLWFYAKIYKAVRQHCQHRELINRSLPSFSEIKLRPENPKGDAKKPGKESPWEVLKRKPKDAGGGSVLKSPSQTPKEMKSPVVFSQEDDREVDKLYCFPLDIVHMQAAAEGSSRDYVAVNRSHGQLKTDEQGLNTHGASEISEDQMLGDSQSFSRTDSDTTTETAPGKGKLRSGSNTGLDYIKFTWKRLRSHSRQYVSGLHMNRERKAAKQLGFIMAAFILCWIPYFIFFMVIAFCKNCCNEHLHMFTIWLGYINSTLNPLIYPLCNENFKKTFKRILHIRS

SMILES	NanoBRET Fold Response (CCR5; CCR5, tracer 0.1μM)	NanoBRET Fold Response (CCR5; CCR5, tracer 1μM)	NanoBRET Fold Response (OPRK1; OPRK1, tracer 0.1μM)	NanoBRET Fold Response (OPRK1; OPRK1, tracer 1μM)	NanoBRET Fold Response (CHRM3; CHRM3, tracer 0.1μM)	NanoBRET Fold Response (CHRM3; CHRM3, tracer 1μM)	NanoBRET Fold Response (HRH1; HRH1, tracer 0.1μM)	NanoBRET Fold Response (HRH1; HRH1, tracer 1μM)	further results
O=C(CCc1ccc2n1[B-](F)(F)[N+]1=C(c3ccc[nH]3)C=CC1=C2)NCc1ccc(C(=O)NCCOCCC(=O)N[C@@H]2CC[C@@]3(O)[C@H]4Cc5ccc(O)c6c5[C@@]3(CCN4CC3CC3)[C@H]2O6)cc1 [Naltrexone-3-NB590]	1.21	1.11	2.19	1.53					
CCCn1c(=O)c2[nH]c(-c3ccc(OCC(=O)NCCNC(=O)CCOCCNC(=O)c4ccc(CNC(=O)CCc5ccc6n5[B-](F)(F)[N+]5=C(c7ccc[nH]7)C=CC5=C6)cc4)cc3)nc2n(CCC)c1=O [XAC-3-NB590]	0.83	0.86	0.97	1.34	0.90	1.29	0.95	1.24	NanoBRET Fold Response (CHRM1; CHRM1, tracer 0.1μM): 1.11; NanoBRET Fold Response (CHRM1; CHRM1, tracer 1μM): 0.99
CC(C)N(CC[C@H](c1ccccc1)c1cc(CCNC(=O)c2ccc(CNC(=O)CCc3ccc4n3[B-](F)(F)[N+]3=C(c5ccc[nH]5)C=CC3=C4)cc2)ccc1O)C(C)C [Tolterodine-BZ-NB590]	1.09	0.97	0.90	0.96	1.18	1.25	0.99	1.10	NanoBRET Fold Response (CHRM1): 2.14 and 2.47
N#CN/C(=N\CCNC(=O)c1ccc(N)cc1)NCCCOc1cccc(CN2CCCCC2)c1 [Aminopotentidine (unmodified)]									NanoBRET Fold Response (OPRK1; OPRK1, other tracers/Aminopotentidine (unmodified), 0.1μM): 1.75; NanoBRET Fold Response (OPRK1; OPRK1, other tracers/Aminopotentidine (unmodified), 1μM): 1.55
COc1ccc2[nH]c(-c3ccc(CNC(=O)CCOCCOCCOCCOCCNC(=O)CCc4ccc5n4[B-](F)(F)[N+]4=C(c6ccc[nH]6)C=CC4=C5)cc3)c(CCNC(C)=O)c2n1 [AzomelatoninICO9-2-NB590]									NanoBRET Fold Response (CCR5; 0.1μM tracer): 1.31; NanoBRET Fold Response (CCR5; 1μM tracer): 0.98; NanoBRET Fold Response (CHRM1; 0.1μM tracer): 1.20; NanoBRET Fold Response (CHRM1; 1μM tracer): 0.97; NanoBRET Fold Response (CHRM3; 0.1μM tracer): 0.95; NanoBRET Fold Response (CHRM3; 1μM tracer): 1.01; NanoBRET Fold Response (HRH1; 0.1μM tracer): 0.94; NanoBRET Fold Response (HRH1; 1μM tracer): 0.89; NanoBRET Fold Response (OPRK1; 0.1μM tracer): 0.96; NanoBRET Fold Response (OPRK1; 1μM tracer): 0.93
CN1CCN(C2=Nc3cc(Cl)ccc3N(CC(=O)NCCOCCOCCOCCOCCNC(=O)CCc3ccc4n3[B-](F)(F)[N+]3=C(c5ccc[nH]5)C=CC3=C4)c3ccccc32)CC1 [Clozapine-c-2-NB590]									NanoBRET Fold Response (CCR5; CCR5, 0.1μM tracer): 0.98; NanoBRET Fold Response (CCR5; CCR5, 1μM tracer): 0.95; NanoBRET Fold Response (OPRK1; OPRK1, 0.1μM tracer): 1.01; NanoBRET Fold Response (OPRK1; OPRK1, 1μM tracer): 0.90
COc1ccccc1N1CCN(CCCCN2C(=O)c3ccc(CNC(=O)CCOCCNC(=O)c4ccc(CNC(=O)CCc5ccc6n5[B-](F)(F)[N+]5=C(c7ccc[nH]7)C=CC5=C6)cc4)cc3C2=O)CC1 [NAN-190-3-NB590]	0.95	1.03	0.89	1.16	1.10	1.12	2.18	1.84	NanoBRET Fold Response (CHRM1; CHRM1, tracer 0.1μM): 0.89; NanoBRET Fold Response (CHRM1; CHRM1, tracer 1μM): 0.92
